Data reported in US20170224654A1, “PHARMACEUTICAL COMPOSITIONS AND METHODS FOR COUNTERING CHEMOTHERAPY INDUCED CARDIOTOXICITY” (Stem Cell Theranostics, Inc., priority 2016, published 2017).
Entries after “also recorded” stand apart in the source; their conditions may differ.

Columns and labels:
[1] = test system: Doxorubicin treated human iPSC-derived cardiomyocytes; assay: iPSC-CM protection of MYR analogs against doxorubicin; format: cell-based; conditions: discussion of Table 1
[2] = test system: TOPOII enzymes (TOPOIIα and TOPOIIβ); assay: kDNA decatenation assay, TOPOIIα and TOPOIIβ jointly; format: biochemical; conditions: discussion of Table 1
Description: 200 ng of kinetoplast DNA (kDNA) was incubated with one enzymatic unit of TOPOIIα or TOPOIIβ enzyme (Inspiralis) and with various concentrations of MYR or DEX at 37° C. for 30 min. The reaction was then separated on 1% agarose gel for visualization of decatenated DNA (bottom band). The efficiency of catalytic inhibition was quantified by measuring the relative intensity of the band.

[3] = test system: Human iPSC-derived cardiomyocytes; assay: Cytotoxicity of MYR analogs to cardiomyocytes; conditions: at or below 100 μM as stated

Compound | cardioprotection (in words) [1] | TOPOII (TOPOIIα and TOPOIIβ) inhibition (in words) [2] | EC50 ([1]; Homo sapiens, Cardiomyocyte, read-out: EC50 / potency for cardioprotection) [µM] | cytotoxicity / toxic effects to cardiomyocytes (in words) [3] | cytotoxicity / toxic effects to cardiomyocytes (in words) ([3]; listed as tricetin)
COc1ccc2c(=O)c(O)c(-c3cc(OC)c(OC)c(OC)c3)oc2c1 [7,3′,4′,5′-O-tetramethylrobinetin] | entirely failed to display cardioprotection or TOPOII inhibition | entirely failed to display cardioprotection or TOPOII inhibition |  |  | 
COc1cc(-c2oc3cc(O)cc(O)c3c(=O)c2O)cc(O)c1O [3′-O-methylmyricetin] | conferred cardioprotection | failed to inhibit TOPOII enzymes | ~59 | without showing generalized cytotoxicity | 
O=c1c(O)c(-c2ccc(O)c(O)c2)oc2cc(O)cc(O)c12 [Compound 4, 3,5,7,3′,4′-pentahydroxyflavone] | conferred cardioprotection | exhibited TOPOII inhibition |  | high level of general cytoxicity | 
COc1cc(-c2oc3cc(O)cc(O)c3c(=O)c2O)cc(OC)c1O [3′,5′-O-dimethylmyricetin] | neither cardioprotection nor TOPOIIα and TOPOIIβ inhibition | neither cardioprotection nor TOPOIIα and TOPOIIβ inhibition |  |  | 
O=c1c(O)c(-c2ccccc2)oc2cc(O)cc(O)c12 [3,5,7-trihydroxyflavone] | neither cardioprotection nor TOPOII inhibition | neither cardioprotection nor TOPOII inhibition |  | generalized cytotoxicity | 
COc1cc(-c2oc3cc(O)cc(O)c3c(=O)c2O)cc(OC)c1OC [3′,4′,5′-O-trimethylmyricetin] | entirely failed to display cardioprotection or TOPOII inhibition | entirely failed to display cardioprotection or TOPOII inhibition |  |  | 
COc1ccc2c(=O)c(OC)c(-c3cc(OC)c(OC)c(OC)c3)oc2c1 [3,7,3′,4′,5′-O-pentamethylrobinetin] | entirely failed to display cardioprotection or TOPOII inhibition | entirely failed to display cardioprotection or TOPOII inhibition |  |  | 
COc1cc(-c2oc3cc(O)ccc3c(=O)c2O)cc(OC)c1OC [3′,4′,5′-O-trimethylrobinetin] | entirely failed to display cardioprotection or TOPOII inhibition | entirely failed to display cardioprotection or TOPOII inhibition |  |  | 
O=c1ccoc2ccccc12 [chromone] | no positive effect in cardiac protection | Nor did either compound confer TOPOIIβ or a inhibition |  |  | 
O=c1cc(-c2cc(O)c(O)c(O)c2)oc2cc(O)cc(O)c12 [Compound 3, 5,7,3′,4′,5′-pentahydroxyflavone] | displayed cardioprotection | TOPOII inhibition |  |  | exhibits some toxic effects at concentrations less than 100 μM; also recorded: low level of cytotoxicity at 100 μM
COc1c(O)cc(-c2oc3cc(O)cc(O)c3c(=O)c2O)cc1O [4′-O-methylmyricetin] | conferred cardioprotection | without TOPOII inhibition |  |  | 
O=c1ccoc2cc(O)ccc12 [Compound 7-hydroxy-4-chromone, 7-hydroxy-4-chromone] | no positive effect in cardiac protection | Nor did either compound confer TOPOIIβ or a inhibition |  | high level of cytotoxicity at 100 μM | 
O=c1cc(-c2cc(O)c(O)c(O)c2)oc2cc(O)ccc12 [7,3′,4′,5′-tetrahydroxyflavone] | displayed cardioprotection | did not inhibit TOPOII enzymes |  |  | 
